Consider 4 compounds from paper PMC13576449, “Small-Molecule Activators of PRMT1: Discovery, SAR Analyses, and Proapoptotic Effects in Pancreatic Cancer Cells” (Journal of Medicinal Chemistry, 2026).

Like-named read-outs stand apart in the source and are kept apart here.

Assay [1] has as its system FLAG-tagged PRMT1 and His-tagged PRMT1. Description: Pulldown assay of PRMT1 homodimerization. Format: binding. The conditions noted are these: 200 (and 500) μM compound vs DMSO. The source says:
The poses were obtained by docking with HYBRID onto previously obtained docking poses of TR-033 (TR-07 in cyan) and TR-036 (TR-07 in red). The two monomers are colored in dark and light gray. The dimerization arm of the right monomer is colored in pale pink. The αY helix of the other monomer is colored pale green. The SAH location (derived from a superposition with PDB ID 6NT2) is indicated in pale yellow, but the molecule was not present during the docking calculations. The two images on the right show a close-up view of each docking pose separately. […] The dashed line separates the first and the second monomer. […] The N-terminal αY helix, the SAH location (derived from a superposition with PDB ID 3Q7E), the arginine acceptor site (derived from a superposition with PDB ID 1OR8), the Double E loop, and the dimerization arm are indicated. […] Subsequently, FLAG-beads were washed and bead-bound proteins were analyzed together with an His-tagged PRMT1 input (20 ng) by Western blot using antibodies against the His- and FLAG-tags. As negative control, anti-FLAG resin saturated with FLAG peptide was incubated with His-tagged PRMT1. The His-PRMT1 signals were densitometrically quantified, corrected to the FLAG-PRMT1 signals, and expressed relative to the solvent control, as specified by the numbers below the immunostainings. Molecular weights (kDa) of the protein marker are indicated.
To evaluate the effect of small-molecule PRMT1 modulators on the dimerization of His-tagged and FLAG-tagged PRMT1, pulldown assays were conducted. For the binding reactions, 1 μg of bead-bound FLAG-tagged PRMT1 was preincubated with or without compounds at a total volume of 200 μL IPH buffer (50 mM Tris/HCl pH 8.0, 5 mM EDTA, 0.5% (v/v) NP-40, 150 mM NaCl) containing protease inhibitors (leupeptin, aprotinin, PMSF; Sigma-Aldrich) at 4 °C and under gentle agitation for 30 min. Subsequently, 0.02 μg His-tagged PRMT1 was added per reaction and incubated at 4 °C and under gentle agitation for 15 min. Finally, the beads were washed 3 times in IPH buffer containing 400 mM NaCl and analyzed by SDS-PAGE and immunoblotting.

The next assay has as its system PANC-1 cells. Description: Cell viability, CellTiter-Glo assay, PANC-1. Format: cell-based, human. The conditions noted are these: n = 3, read-out: half-maximal inhibitory concentration (IC50) for PANC-1 cell viability. On the procedure: (§1) As negative control (Ctrl (−)), PRMT1 enzymes and [^14C-methyl]-SAM were incubated without substrates. Subsequently, samples were separated by SDS-PAGE, blotted, and analyzed by autoradiography. Substrates (H2A, H4 or GST-GAR) and molecular weights (kDa) of the protein marker are indicated. Black lines designate composite images, assembled from the same blots and exposure times. The methylation signals of the substrates were densitometrically quantified, and expressed relative to the DMSO-treated control, as indicated by the numbers below the autoradiographs. Representative results are depicted, with quantification graphs (below the autoradiographs in A and B) summarizing biological replicates. […] Subsequently, GST-GAR was immobilized on glutathione-beads and PRMT1 activity was measured by quantifying the incorporation of ^14C-methyl groups (in cpm) using liquid scintillation counting. […] Cell viability was quantified using the CellTiter-Glo assay. Viability of compound-treated cells is shown in % relative to the viability of solvent-treated cells, which was set to 100% (mean ± SD, n = 3), and then plotted against the logarithm of the compound concentrations. Concentration-viability curves were fitted by nonlinear regression, with the half-maximal inhibitory concentration (IC50) of the compounds for PANC-1 cell viability and the coefficient of determination (R^2) indicated. […] Subsequently, whole-cell extracts were prepared and analyzed by Western blot using antibodies against ADMA, ACTIN (ACT), and VINCULIN (VINC), of which the latter two stainings served as loading controls. Molecular weights (kDa) of the protein marker are indicated. All the ADMA signals per lane were densitometrically quantified, normalized to the signal of the respective loading control and expressed relative to the DMSO-treated control, as indicated by the numbers below the immunostainings.
Cell viability was assessed using the CellTiter-Glo assay (Promega) according to the manufacturer’s instructions. Briefly, PANC-1 and PaTu8988T cells were seeded as triplicates in 96 well plates (5 × 10^3 cells/well) and allowed to adhere for 3–4 h, followed by treatment with the compounds at 11–12 concentrations spanning 0.028–120 μM for 96 h, with DMSO (solvent) treated cells serving as control. Subsequently, cell viability was quantified by measuring luminescence on a microplate reader, and the signal of compound-treated cells was normalized to the signal of the solvent-treated control, which was set to 100%. Cell viability in % was plotted against the logarithm of the compound concentration, and concentration-response curves were fitted by nonlinear regression using a three-parameter logistic model to determine half-maximal inhibitory concentrations (IC50).
(In general: ATP-based viability assays read luminescence as a measure of living cells.)

For another assay, the target named is T1, FLAG-tagged PRMT1 (Rattus norvegicus, UniProt Q63009).
T1 construct: Full-length FLAG-tagged PRMT protein; made in house; host or cells: Sf9 insect cells (baculovirus)
The assay is described as follows: Liquid in vitro methyltransferase assay, scintillation counting (GST-GAR). Format: biochemical. To be noted: 200 μM compound, except TR-033 100 μM; vs DMSO control. On the procedure:
as §1
For the liquid methyltransferase assays, the reaction mixtures, containing 1–2 μg eluted FLAG-tagged PRMT1 and as the substrate 1–2 μg eluted GST-GAR protein at a total volume of 20 μL in PBS, were preincubated in the absence (DMSO) or presence of compounds at room temperature and under agitation (800 rpm) for 30 min. […] After washing, 1 mL scintillation liquid (Rotiszint ecoplus, Roth) was added to the bead-bound GST-GAR and incorporated ^14C-methyl groups were quantified using a scintillation counter (LS6500, Beckman Coulter). Background signal was determined using 1 mL of scintillation fluid alone and was subtracted from the measured counts of the enzymatic reactions. Compound-treated PRMT1 activity was expressed as background-corrected counts (in cpm) normalized to the DMSO control.

T1 sequence (Q63009 whole entry): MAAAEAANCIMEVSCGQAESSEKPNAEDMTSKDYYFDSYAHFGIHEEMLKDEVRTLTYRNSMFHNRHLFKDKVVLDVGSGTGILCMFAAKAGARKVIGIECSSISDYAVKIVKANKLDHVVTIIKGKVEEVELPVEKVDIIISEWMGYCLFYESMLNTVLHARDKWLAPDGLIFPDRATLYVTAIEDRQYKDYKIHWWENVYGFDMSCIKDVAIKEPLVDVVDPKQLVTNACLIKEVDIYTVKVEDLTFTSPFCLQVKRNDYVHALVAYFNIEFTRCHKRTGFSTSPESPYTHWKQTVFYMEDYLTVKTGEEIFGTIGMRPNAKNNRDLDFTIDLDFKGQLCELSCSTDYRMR

Consider `CN(C)Cc1cccc(CN/C=C2\C(=O)NC(=O)c3ccccc32)c1.Cl` [TR-07, (Z)-1-[3-({[(1,3-Dioxo-2,3-dihydroisoquinolin-4(1H)-lidene)methyl]amino}methyl)phenyl]-N,N-dimethylmethanaminium chloride], for which the “interaction of FLAG-tagged PRMT1 and His-tagged PRMT1 (homodimerization)” value (“interaction” below) in assay [1] was “elevated interaction of the two PRMT1 species”. The IC50 with PANC-1 cells (Homo sapiens, PANC-1, 96 h) came out at 45 µM. Also, the “PRMT1 methylation activity toward GST-GAR, liquid scintillation counting” value at FLAG-tagged PRMT1 was “increased”.

As to `CN(C)Cc1cccc(-c2ccc3[nH]c(=O)c4ccccc4c3c2)c1` [TR-033, 2-{3-[(Dimethylamino)methyl]phenyl}phenanthridin-6(5H)-One], the “interaction” value in assay [1] is reported as “elevated interaction of the two PRMT1 species”. Moreover, the IC50 in the assay on PANC-1 cells (Homo sapiens, PANC-1, 96 h) is 10 µM. At FLAG-tagged PRMT1, the “PRMT1 methylation activity toward GST-GAR, liquid scintillation counting” value is “increased”.

Turning to `CCN(CC)Cc1cccc(N/C=C2\C(=O)NC(=O)c3ccccc32)c1.Cl` [TR-036, (Z )-N-(3-{[(1,3-Dioxo-2,3-dihydroisoquinoline-4(1 H )-ylidene)methyl]amino}benzyl)-N -ethylethanaminium chloride], the “interaction” value in assay [1] is reported as “elevated interaction of the two PRMT1 species”. Besides, in the assay with PANC-1 cells (Homo sapiens, PANC-1, 96 h), the IC50 was determined as 32 µM. Also, the “PRMT1 methylation activity toward GST-GAR, liquid scintillation counting” value on FLAG-tagged PRMT1 was “increased”.

On to “(Z)-2-(2-{[(1,3-Dioxo-2,3-dihydroisoquinolin-4(1H)-ylidene)methyl]amino}phenyl)-N,N-dimethylethan-1-aminium chloride [ICTR-059]”, for which the “interaction” value in assay [1] is on record as “elevated interaction of the two PRMT1 species”. For the same compound, the IC50 in the assay on PANC-1 cells (96 h) came to 19 µM. Also, on FLAG-tagged PRMT1, the “PRMT1 methylation activity toward GST-GAR, liquid scintillation counting” value is reported as “increased”.
